In assay [1] the target is T1, IL17A (Homo sapiens, UniProt Q16552).
T1 construct: Biotinylated Avi-tag IL17A-(24–155) was produced by enzymatic biotinylation; 6His-MBP (N, cleaved yes); made in house; host or cells: Escherichia coli Shuffle T7 express (NEB)
As to the kind of experiment: Compound binding to IL17A via surface plasmon resonance (SPR). As to conditions: for Kd: binding to IL17A. The protocol:
Compounds were assayed via Surface Plasmon Resonance (SPR) using Biacore T200 instrument and Biacore 4000 [Formerly GE Healthcare (now Cytiva Life Sciences)]. […] Sensorgrams were processed (including solvent correction) and analyzed using Biacore T200 and Biacore 4000 evaluation software. The binding curves were fit to determine the equilibrium dissociation constant (KD) and kinetic constants (kon and koff).
Supplemental Figure 2: Measurement for binding of IL17A inhibitors by Surface Plasmon Resonance (SPR).

In a further assay the target is T2, IL17A-IL17RA-Fc complex (Homo sapiens, UniProt Q16552).
T2 construct: purchased R&D Systems
As to the kind of experiment: IL17A-IL17RA-Fc AlphaLISA assay. It is filed as biochemical. The protocol: (§1) AlphaLISA technology was used to understand the ability of compounds to inhibit IL17A binding to IL17 receptor (IL17RA). Compounds of interest were diluted in 100% DMSO and plated in a 384 well white proxiplate (Perkin Elmer) using Echo Acoustic Liquid Handler (LabCyte Sunnydale, CA). To the compound plate, 4 µL of biotinylated IL17A (R&D systems) and 2 µL of IL17RA-Fc (R&D Systems) was added, to provide a final concentration of 1 nM of IL17RA-Fc and IL17A, respectively. The assay was carried out in 100 mM Tris, 0.01% Tween-20, 0.1% BSA, pH 8.0. The assay mixture was allowed to incubate at room temperature for 60 min, after which, 2 µL of protein A AlphaLISA acceptor beads (#AL101M, PerkinElmer) was added to a final concentration of 7.5 µg/mL for 60 min. To the plate, 2 µL of streptavidin donor beads (#6,760,002, PerkinElmer) was added to a final concentration of 7.5 µg/mL. The plate was allowed to incubate for one hour at room temperature, then loaded into the Envision multimode plate reader (Perkin Elmer). AlphaLISA TruHits Kits (#AL900D, PerkinElmer) were used to assess potential false positives. All inhibition experiments were normalized against DMSO control containing no inhibitor. Example raw data are shown in Supplementary Fig. 10A.
Background: In Alpha technology, singlet oxygen from a donor bead excites a nearby acceptor bead.

Assay [2] deals with T1, IL17A. Nature of the assay: Isothermal titration calorimetry with IL17A dimer. As to conditions: reverse titration, 50 mM sodium phosphate pH 7.0; read-out: ITC affinity (KD). The format is binding. As to the method:
Supplemental Figure 7: Isothermal titration calorimetry of Cmpd 10. Theoretical binding of 1 molecule to a IL17A dimer would result in N of 0.5. Observed stoichiometry was 0.7. 200 µM IL17A (dimer) used injected (reverse titration) to 20 µM Cmpd 10 in 50 mM sodium phosphate pH 7.0.

Assay [3] addresses T1, IL17A. Nature of the assay: Fluorescence polarization competition assay with FP probe Cmpd 11. The format is binding. As to conditions: for Competition for IL17A with FP probe: probe Cmpd 11. The protocol: Fluorescence polarization (FP) assays were performed in black shallow 384-well micro plates (ProxiPlate – 384 F Plus, PerkinElmer) using Envision multimode plate reader (Perkin-Elmer). Polarization was measured by using an excitation filter of 485 nm and an emission filter of 535 nm. Each well was flashed 50 times, and the average values were used. Briefly, 5 µL of IL17A (20 nM) diluted in the assay buffer (50 mM Tris pH 8.0, 0.001% Tween) was added to compound containing wells and incubated for 60 min. To this, 5 µL of the FP probe (10 nM) was added and the reaction mixture was incubated for 120 min at room temperature prior to measuring FP. All inhibition experiments were normalized against DMSO control containing no inhibitor.

Assay [4] has as its system IL17A/TNF stimulated HeLa cells carrying an LCN2 promoter-driven luciferase reporter. Nature of the assay: IL17A/TNF stimulated HeLa-LCN2 luciferase reporter cells. As to conditions: for IC50: Homo sapiens, HeLa LCN2 luciferase reporter, IL17A and TNF, read-out: IL17A/TNF stimulated cell IC50. The format is cell-based. As to the method:
(§2) The promoter of the IL17 target gene lipocalin 2 (LCN2) inserted into pGL4-luciferase vector (pGL4[luc2P/LCN2/Hygro], obtained from Promega) was used to generate a stable clone in HeLa cells (ATCC) using hygromycin. In response to IL17 stimulation the increase in LCN2-luciferase gene transcription can be monitored using the luciferase reporter assay as described below. The reporter cells (HeLa-LCN2) were cultured in Dulbecco's modified Eagle's medium supplemented with 10% (v/v) fetal bovine serum, 0.2 mg/mL hygromycin, and 1% penicillin and streptomycin. Cells were maintained at 37 °C in a humidified atmosphere of 5% CO2. The assay media contained Dulbecco's modified Eagle's medium supplemented with 0.5% Charcoal-stripped FBS and 1% penicillin and streptomycin. About 7500 cells per well were plated in 40 ul assay media in a 384-well black plate (Grenier, #781,090) for 16 h. Then cells were stimulated with IL17A (10 ng/mL) and TNF (20 ng/mL) for 6 h at 37 °C and 5% CO2. The supernatant was removed and 25 µL of One-Glo reagent (#E6110, Promega) was added to the wells and luminescence was measured using Envision multimode plate reader. Background signal was measured using the same protocol by stimulating cells with TNF (20 ng/mL) in the absence of IL17A. All inhibition experiments were normalized against DMSO control containing no inhibitor. Example raw data are shown in Supplementary Fig. 10B.

Assay [5] has as its system TNF-only stimulated HeLa reporter cells. Nature of the assay: TNF-only stimulated HeLa-LCN2 luciferase reporter cells. The settings on record: Homo sapiens, read-out: TNF-only stimulated cell IC50. It is filed as cell-based. As to the method: as §2
For orientation: Reporter assays use an easily measured gene product as a stand-in for the process of interest.

Another assay deals with T3, IL17RA (Homo sapiens, UniProt Q96F46).
T3 construct: purchased Sino Biological
Nature of the assay: SPR of IL17A WT and truncated IL17A binding to IL17RA. The settings on record: IL17A construct binding to IL17RA. As to the method:
(§3) To interrogate IL17A—IL17RA binding and the effect of compound binding to IL17A for interaction with IL17RA, Biotinylated Avi tag IL17RA was immobilized using CAP chip. IL17A WT protein with and without compounds was injected over the immobilized IL17RA surface. The surface was regenerated using mixture of 8 M Guanidine Hydrochloride and 1 M Sodium Hydroxide. To profile both IL17A WT and truncated-IL17A binding to IL17RA, Fc tag IL17RA (Sino Biological) was captured on immobilized anti-Fc (Human Fc from Pierce) surface. IL17A WT (34–155)C129S and Truncated (34–148)C129S was injected at flow rate of 80 µL/min for contact time of 180 s and dissociation was monitored for 1200 s. The surface was regenerated with 2 consecutive injections (60 s and 10 s at 60 µL/min) of 10 mM Glycine, pH 1.5.

A short description of assay [6]: AlphaLISA TruHits counter screen for false positives. As to conditions: AlphaLISA non-specific effects; read-out: TruHits counterscreen IC50. The protocol: as §1
In assay [7] the test system is T4, IL17A-IL17RA interactions.
T4 construct: IL17A WT (34–155)C129S and Truncated (34–148)C129S was injected; Trx-6His (N, cleaved yes); made in house; host or cells: Escherichia coli Shuffle T7 express (NEB) for IL17A
Nature of the assay: SPR competition assay: IL17A +/- inhibitor over immobilized IL17RA. It is filed as binding. The settings on record: IL17A +/- inhibitor injected over immobilized IL17RA. The protocol: as §3
Supplemental Figure 6: C-terminal binding site compounds can disrupt IL17A binding to its receptor in SPR competition assay. Biotinylated Avi-tagged IL17RA was captured on CAP chip; IL17A +/- inhibitor samples were injected over immobilized IL17RA . Cmpd 1 was used as the positive control. [picture]

For assay [8], the target named is T5, IL17A (Homo sapiens, UniProt Q16552, C129S).
T5 construct: For crystallography, NMR and early SPR studies, IL17A (34–155)C129S; Trx-6His (N, cleaved yes); made in house; host or cells: Escherichia coli Shuffle T7 express (NEB)
As to the kind of experiment: 2D NMR titration of compound binding to IL17A. As to the method:
NMR spectra were acquired on either a Bruker 500 MHz AVANCE III spectrometer or a Bruker 600 MHz AVANCE III HD spectrometer, both with cryoprobes, on 60 µM protein samples in 20 mM deuterated TRIS buffer, pH 8.0, with 150 mM NaCl. For fragment screening, fragments were added from a concentrated DMSO stock to a concentration of 1 mM in the NMR tube. As described above, fragments were initially added as mixtures of 12 and those mixtures which induced significant changes in a 13C-HSQC spectrum of the protein were then deconvoluted to find the individual binders.

Setting [9] is: disruption of IL17A-IL17RA-Fc complex formation, read-out: IL17A/IL17RA-Fc AlphaLISA IC50.

Several values for one entry are separate records, joined by “and”; a condition that tells them apart may be missing. Equal values may be shown once. Entries after “also recorded” stand apart in the source; their conditions may differ. Read-outs that look alike come from different tables or passages of the source.

T1 sequence (Q16552 24-155): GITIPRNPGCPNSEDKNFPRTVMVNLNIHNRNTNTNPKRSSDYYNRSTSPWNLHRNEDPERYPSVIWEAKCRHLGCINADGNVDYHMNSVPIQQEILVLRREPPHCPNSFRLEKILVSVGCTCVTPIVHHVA
T2 sequence (Q16552 24-155, one chain of several): as the sequence (Q16552 24-155) above
T5 sequence (Q16552 34-155 C129S): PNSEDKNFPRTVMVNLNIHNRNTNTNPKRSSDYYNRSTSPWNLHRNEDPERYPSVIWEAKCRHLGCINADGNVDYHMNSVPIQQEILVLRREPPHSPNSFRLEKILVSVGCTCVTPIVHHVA

The Kd is the constant that tells how readily two partners part at equilibrium. For `O=C(O)c1cc(NCc2ccccc2OCCOCCOCCOc2ccccc2CNc2cc(C(=O)O)cc(-c3ccnc4ccccc34)c2)cc(-c2ccnc3ccccc23)c1` [Cmpd 10], the Kd at IL17A [1] is 0.043 µM and < 0.1 µM; at IL17A [2], 0.044 µM. The IC50 at IL17A-IL17RA-Fc complex (inhibition of IL17A/IL17RA-Fc interactions, read-out: IL17A/IL17RA-Fc IC50) was 0.74 µM; at IL17A [3] (unlabeled compound pre-bound to IL17A before addition of FP probe), 0.107 µM; in assay [4], 1.3 µM; in [5], above 50 µM.

With `Clc1ncc(NCc2ccccc2)cc1-c1cccc2ncccc12` [Cmpd 6, N-benzyl-6-chloro-5-(quinolin-5-yl)pyridin-3-amine], the Kd at IL17A [1] is ~70 µM and 72 µM.

Turning to “C-terminal deletion: IL17A construct (aa 34–148) lacking the final C-terminal residues (aa 149–155)”, in the assay with IL17RA, the “Interaction with IL17RA by SPR” value was “did not productively interact with IL17RA”.

Turning to `O=C(COc1ccccc1CNc1cc(C(=O)O)cc(-c2ccnc3ccccc23)c1)NCCNC(=O)COc1ccccc1CNc1cc(C(=O)O)cc(-c2ccnc3ccccc23)c1` [Cmpd 8, 5,5'-((((((ethane-1,2-diylbis(azanediyl))bis(2-oxoethane-2,1-diyl))bis(oxy))-bis(2,1-phenylene))bis(methylene))bis(azanediyl))bis(3-(quinolin-4-yl)benzoic acid)], binding at IL17A [1] was characterised by a dissociation constant (Kd) of 0.37 µM. For the same molecule, the IC50 at IL17A-IL17RA-Fc complex (setting [9]) is 3.6 µM and ~4 µM; in [6], around 54 µM; in [4], 4.7 µM; in assay [5], around 51 µM. Besides, the “Competition for IL17A with FP probe” value at IL17A [3] is “full competition”. Also, the “Disruption of IL17A-IL17RA interactions in SPR-based assay” value in assay [7] was “could block IL17A receptor interactions; also recorded: showed disruption of IL17A-IL17RA interactions”.

With `O=C(COc1ccccc1CNc1cc(C(=O)O)cc(-c2ccnc3ccccc23)c1)NCCOCCOc1ccccc1CNc1cc(C(=O)O)cc(-c2ccnc3ccccc23)c1` [Cmpd 9, 3-((2-(2-(2-(2-(2-(((3-carboxy-5-(quinolin-4-yl)phenyl)amino)methyl)-phenoxy)acetamido)ethoxy)ethoxy)-benzyl)amino)-5-(quinolin-4-yl)benzoic acid], on IL17A [1], the Kd is 0.21 µM and 0.209 µM. The IC50 at IL17A-IL17RA-Fc complex (setting [9]) was 1.3 µM; in assay [6] it was around 57 µM; in [4], 5.7 µM; in [5] it was above 70 µM. In addition, the “Competition for IL17A with FP probe” value at IL17A [3] is “full competition”.

For the molecule `O=C1CC2(CCCC2)CC(=O)NC(Cc2ccc(NC(=O)C(Cc3ccccc3Cl)NC(=O)Cc3cccc(O)c3)cc2)C(=O)NCCOCCOCCN1` (stereo not drawn) [Cmpd 1, reference compound], the dissociation constant Kd at IL17A [1] was around 0.004 µM. On IL17A [1] (from SPR KD and molecular weight), the “Binding efficiency index (BEI)” value is given as 11–13. In addition, the “Potency in biochemical assays” value on IL17A-IL17RA-Fc complex (positive control in biochemical assays) is recorded as “low nM potency”. In [4] (positive control in cellular assays), the “Concentration needed to block cellular signaling” value is recorded as ~ 3 µM.

Molecule `c1ccc(CNc2cncc(-c3ccc4[nH]nc(NCCN5CCOCC5)c4c3)c2)cc1` [Cmpd 5, 5-(5-(benzylamino)pyridin-3-yl)-N-(2-morpholinoethyl)-1H-indazol-3-amine] had a dissociation constant (Kd) at IL17A [8] of 12 µM.

`C/C=C/c1cccc2c(N)n[nH]c12` [Cmpd 4, (E)-7-(prop-1-en-1-yl)-1H-indazol-3-amine] came in with a dissociation constant (Kd) at IL17A [1] above 250 µM.

(Values after paper PMC9418147, “Identification and structure-based drug design of cell-active inhibitors of interleukin 17A at a novel C-terminal site” (Scientific Reports, 2022).)
